System: depressive patient
Assay: Fluctuation in the difference of Lyapunov exponent and entropy (mirror dynamic) under medication
Assay type: in vivo, human
Conditions: Patient A or Patient B, early stages of treatment, FIG. 15
Method: Taking for an example the case where the action that may change a biological state is a medication, described below is a judging method for the symmetric property of Lyapunov exponent and entropy directly from the graph where the variations of these exponents with time are recorded.
This means, in other words, there exist fluctuations in the difference between Lyapunov exponent and entropy, and such a state can be called “mirror dynamic”. […] On the other hand, the fluctuation in the difference (shadow area) of Lyapunov exponent and entropy is minor in the early stages of treatment for Patient B, and therefore it can be judged that the effectiveness of medication of cloxazolam (1 mg) is low. […]
In the method according to this embodiment for judging the efficacy of an action, measurements of Lyapunov exponent and entropy are carried out at least twice, i.e. before and after the medication. […] Lyapunov exponent and entropy measured at least once after the medication are compared to the results before the medication, the variation in the symmetric property between the Lyapunov exponent and the entropy and the directional property of temporal variation in the difference between the Lyapunov exponent and the entropy, and then the effectiveness of the drug can be judged. […]

In the case of `O=C1CN2CCOC2(c2ccccc2Cl)c2cc(Cl)ccc2N1` (stereo not shown) [cloxazolam, Cloxazolam], the “effectiveness of medication judged from fluctuation in the difference (shadow area) of Lyapunov exponent and entropy” value was “low”.
